Reference: article PMC5974779, “Prediction of Drug-Induced Hepatotoxicity Using Long-Term Stable Primary Hepatic 3D Spheroid Cultures in Chemically Defined Conditions” (Toxicological Sciences, 2018)
Like-named read-outs stand apart in the source and are kept apart here.

What was measured:
[1] = ref DrugBank and Prescribers' Digital Reference database; cited from earlier work
[2] = tested on: primary human hepatocytes (PHH) 3D spheroids
[3] = cited from earlier work
[4] = tested on: clinical DILI in man; conditions: cited from earlier work
[5] = therapeutic total cmax, ref PMID
[6] = DILI classification score, ref Suzuki et al. (2010)
[7] = FDA drug labeling DILI concern, ref Chen et al., 2011
[8] = FDA drug labeling DILI score, ref Chen et al., 2011
[9] = clinical DILI classification in man (POS/NEG)
[10] = clinical DILI classification used in this study, Supplementary Table 2, ref Chen et al., 2011, Guo et al., 2005, O'Brien et al., 2006, Sakatis et al., 2012, Suzuki et al., 2010, Xu et al., 2008
[11] = clinical DILI classification, Supplementary Table 1, ref Chen et al., 2011, Guo et al., 2005, O'Brien et al., 2006, Sakatis et al., 2012, Suzuki et al., 2010, Xu et al., 2008
[12] = reported pattern of liver damage, Supplementary Table 2, ref literature
[13] = clinical DILI classification, ref Xu et al. (2008)

Row | SMILES | Extent of hepatic metabolism [1] | Chemically defined spheroids (this study) 20x [2] | Cmax [3, 5] [nM] | Suzuki et al. (2010) [4, 6] | FDA (Severity) [4, 7] | FDA (0-8) [4, 8] | DILI in vivo [4, 9] | Classified as [4, 10] | DILI in vivo [4, 11] | Type of DILI [4, 12] | Classified as ([4]; in vivo) | Clinical DILI class (panel heading of Figure 4) ([4]; in vivo) | DILI in vivo ([4]; in vivo) | also measured
1 | CC(C)NNC(=O)c1ccncc1 [Iproniazid] | Extensive | Negative | 40 | 3 | most DILI concern | Withdrawn | POS | POS | POS | Hepatocellular injury | – | – | – | hepatotoxicity evaluation in CD-spheroids [2]: predicted to be DILI negative; Sakatis et al. (2012) ([4]; in vivo): Hepatotoxic
2 | CCCN(CCC)C(=O)Cc1c(-c2ccc(Cl)cc2)nc2ccc(Cl)cn12 [Alpidem] | Extensive | Positive | 670 | 3 | most DILI concern | Withdrawn | POS | POS | POS | Hepatocellular injury | – | – | – | Sakatis et al. (2012) ([4]; clinical hepatotoxicity classification, ref Sakatis et al. (2012)): Hepatotoxic
3 | CNC(=O)Oc1ccc2c(c1)[C@]1(C)CCN(C)[C@@H]1N2C [Physostigmine] | Extensive | Negative | – | – | – | 0 | NEG | NEG | NEG | Non-hepatotoxic | – | – | – | Cmax ([3]; human, in vivo): 18 nM; Xu et al. (2008) [4, 13]: Negative; O'Brien et al. (2003) ([4]; in vivo): Non-toxic
4 | CC(C)OC(=O)C(C)(C)Oc1ccc(C(=O)c2ccc(Cl)cc2)cc1 [Fenofibrate] | Extensive | Positive | 12100 | – | – | – | – | – | – | – | POS | High DILI concern | POS | FDA (0-8) ([4]; in vivo): 3; FDA (Severity) ([4]; in vivo): less DILI concern; O'Brien et al. (2003) ([4]; in vivo): Moderately; Sakatis et al. (2012) ([4]; in vivo): Hepatotoxic; Suzuki et al. (2010) ([4]; in vivo): 1; Type of DILI ([4]; in vivo): Hepatocellular injury, Cholestatic injury or Mixed hepatitis; Xu et al. (2008) ([4]; in vivo): Positive
5 | O=C(c1ccccc1)c1ccc2n1CCC2C(=O)O (stereo not shown) [Ketorolac] | Moderate | Positive | 2390 | 1 | less DILI concern | 3 | POS | POS | POS | – | – | – | – | Guo et al. (2005) ([4]; DILI classification score, ref Guo et al. (2005)): 2; Xu et al. (2008) [4, 13]: Positive; O'Brien et al. (2003) ([4]; clinical hepatotoxicity classification, ref O'Brien et al. (2003)): Severely
6 | CCCCNc1cc(C(=O)O)cc(S(N)(=O)=O)c1Oc1ccccc1 [Bumetanide] | Moderate | Negative | 80 | – | – | – | – | – | – | – | POS | High DILI concern | POS | FDA (0-8) ([4]; in vivo): 3; Xu et al. (2008) ([4]; in vivo): Positive
7 | NNc1nnc(NN)c2ccccc12 [Dihydralazine] | Moderate | Positive | 2630 | – | – | – | POS | POS | POS | Hepatocellular injury or Cholestatic injury | – | – | – | –
8 | CCN(CC)Cc1cc(Nc2ccnc3cc(Cl)ccc23)ccc1O [Amodiaquine] | Extensive | Positive | 1910 | – | – | – | – | – | – | – | POS | Severe DILI | POS | hepatotoxicity evaluation in CD-spheroids ([2]; human, 14 days): highly toxic at 5× and 20× of therapeutic serum levels; Clinical DILI classification (Figure 5) ([4]; in vivo): DILI positive; Type of DILI ([4]; in vivo): Hepatocellular injury
